pEC50: −log10 of the molar value. Bridge positions count the residues as written; N and C are the ends. Square brackets hold non-standard residues; d marks the D form. Peptide text beside a SMILES is read from it. Hyp = O=C(O)[C@@H]1C[C@@H](O)CN1; Cit = NC(=O)NCCC[C@H](N)C(=O)O
What was measured:
hAMY3 receptor = target: T1, hAMY3 receptor (Homo sapiens, UniProt O60896+P30988); test: cAMP assay for in vitro receptor activation, hAMY3-R; type: cell-based; conditions: cAMP assay, hAMY3 receptor; read-out: hAMY3R EC50
T1 sequence (P30988 25-474): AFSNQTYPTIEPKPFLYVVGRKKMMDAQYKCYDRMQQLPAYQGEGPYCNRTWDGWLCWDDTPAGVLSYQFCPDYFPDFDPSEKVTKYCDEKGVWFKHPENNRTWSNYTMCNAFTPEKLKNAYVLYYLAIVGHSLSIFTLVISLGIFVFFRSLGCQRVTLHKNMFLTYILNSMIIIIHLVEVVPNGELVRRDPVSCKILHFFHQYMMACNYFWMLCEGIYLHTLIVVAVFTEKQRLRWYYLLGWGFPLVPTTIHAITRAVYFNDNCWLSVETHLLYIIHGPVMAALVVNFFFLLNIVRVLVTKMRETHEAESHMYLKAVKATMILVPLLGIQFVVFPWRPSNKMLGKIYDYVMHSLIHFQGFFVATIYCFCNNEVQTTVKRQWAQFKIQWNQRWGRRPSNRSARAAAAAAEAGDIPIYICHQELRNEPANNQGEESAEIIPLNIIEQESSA
T1 sequence (O60896 24-148 partner): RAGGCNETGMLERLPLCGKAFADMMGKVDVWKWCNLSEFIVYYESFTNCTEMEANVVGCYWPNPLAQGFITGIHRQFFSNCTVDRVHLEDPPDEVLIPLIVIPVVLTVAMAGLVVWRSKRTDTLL
In short: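 Accumulated cAMP was detected by time-resolved FRET one hour after reagent addition. Beforehand, hAMY3-R-overexpressing monoclonal cells (2000/well, DPBS, 0.05% casein, 0.5 mM IBMX) received graded doses of compound for 30 min at room temperature; human amylin served as positive control.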

[1] = Physical stability of peptide analogues (Thioflavin T fibrillation); type: physicochemical; conditions: maximum ThT signal normalized between hAMY maximum and buffer background; 40° C., shaking, four days; pH 7 per table title
In short: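 1 h in 50 mM NaOAc pH 4 / 50 mM NaPi pH 7; + ThT 4 μM final; 40 °C, 700 rpm linear shake 5 min pre-read; ex 450, em 480 nm q10 min × 4 d; LOESS smoothing; max signal normalised to hAMY max vs buffer blank.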

Row | Compound | pEC50 (hAMY3 receptor) | Max ThT signal (%) [1]
1 | CC[C@H](C)[C@H](NC(=O)[C@H](CCC(N)=O)NC(=O)[C@H](Cc1c[nH]cn1)NC(=O)[C@H](C)NC(=O)[C@H](CC(C)C)NC(=O)[C@H](CCCNC(N)=O)NC(=O)[C@H](CCC(N)=O)NC(=O)[C@@H](NC(=O)[C@@H](NC(=O)[C@@H]1CSSC[C@H](NC(=O)CN)C(=O)N[C@@H](CCCNC(=N)N)C(=O)N[C@@H](Cc2ccccc2)C(=O)NCC(=O)N[C@@H]([C@@H](C)O)C(=O)N1)[C@@H](C)O)C(C)C)C(=O)N[C@@H](Cc1ccc(O)cc1)C(=O)N[C@@H](CCC(N)=O)C(=O)N[C@@H](Cc1ccccc1)C(=O)N[C@H](C(=O)N[C@@H](CC(=O)O)C(=O)N[C@@H](CCCCN)C(=O)N[C@@H](CC(=O)O)C(=O)N[C@@H](CCCCN)C(=O)N[C@@H](CC(=O)O)C(=O)N[C@@H](CC(N)=O)C(=O)N[C@H](C(=O)N[C@@H](C)C(=O)N1CCC[C@H]1C(=O)N[C@@H](CCCNC(=N)N)C(=O)N[C@H](C(=O)N[C@@H](CC(N)=O)C(=O)N[C@H](C(=O)NCC(=O)N1CCC[C@H]1C(=O)N[C@@H](CCC(N)=O)C(=O)NCC(=O)N1C[C@H](O)C[C@H]1C(N)=O)C(C)C)[C@@H](C)O)C(C)C)[C@@H](C)O [compound 267] (H-GCRFGTCTVQ[Cit]LAHQIYQFTDKDKDNVAPRTNVGPQG[Hyp]-NH2; disulfide 2-7; N-terminus assumed) | 11.15 | 30.900%
2 | CC[C@H](C)[C@H](NC(=O)[C@H](CCC(N)=O)NC(=O)[C@H](Cc1c[nH]cn1)NC(=O)[C@H](C)NC(=O)[C@H](CC(C)C)NC(=O)[C@H](CCCNC(=N)N)NC(=O)[C@H](CCC(N)=O)NC(=O)[C@@H](NC(=O)[C@@H](NC(=O)[C@@H]1CSSC[C@H](NC(=O)CN)C(=O)N[C@@H](CCCNC(=N)N)C(=O)N[C@@H]([C@@H](C)O)C(=O)NCC(=O)N[C@@H]([C@@H](C)O)C(=O)N1)[C@@H](C)O)C(C)C)C(=O)N[C@@H](Cc1ccc(O)cc1)C(=O)N[C@@H](CCC(N)=O)C(=O)N[C@@H](Cc1ccccc1)C(=O)N[C@H](C(=O)N[C@@H](CC(=O)O)C(=O)N[C@@H](CCCCN)C(=O)N[C@@H](CC(=O)O)C(=O)N[C@@H](CCCCN)C(=O)N[C@@H](CC(=O)O)C(=O)N[C@@H](CC(N)=O)C(=O)N[C@H](C(=O)N[C@@H](C)C(=O)N1CCC[C@H]1C(=O)N[C@@H](CCCNC(=N)N)C(=O)N[C@H](C(=O)N[C@@H](CC(N)=O)C(=O)N[C@H](C(=O)N[C@@H](CO)C(=O)N1CCC[C@H]1C(=O)N[C@@H](CC(N)=O)C(=O)NCC(=O)N1C[C@H](O)C[C@H]1C(N)=O)[C@@H](C)CC)[C@@H](C)O)C(C)C)[C@@H](C)O [compound 170] (H-GCRTGTCTVQRLAHQIYQFTDKDKDNVAPRTNISPNG[Hyp]-NH2; disulfide 2-7) | 10.19 | 1.800%
3 | CC[C@H](C)[C@H](NC(=O)[C@H](CCC(N)=O)NC(=O)[C@H](Cc1c[nH]cn1)NC(=O)[C@H](C)NC(=O)[C@H](CC(C)C)NC(=O)[C@H](CCCNC(=N)N)NC(=O)[C@H](CCC(N)=O)NC(=O)[C@@H](NC(=O)[C@@H](NC(=O)[C@@H]1CSSC[C@H](NC(=O)CN)C(=O)N[C@@H](CCCNC(=N)N)C(=O)N[C@@H](Cc2ccccc2)C(=O)NCC(=O)N[C@@H]([C@@H](C)O)C(=O)N1)[C@@H](C)O)C(C)C)C(=O)N[C@@H](Cc1ccc(O)cc1)C(=O)N[C@@H](CCC(N)=O)C(=O)N[C@@H](Cc1ccccc1)C(=O)N[C@H](C(=O)N[C@@H](CC(=O)O)C(=O)N[C@@H](CCCCN)C(=O)N[C@@H](CC(=O)O)C(=O)N[C@@H](CCCCN)C(=O)N[C@@H](CC(=O)O)C(=O)N[C@@H](CC(N)=O)C(=O)N[C@H](C(=O)N[C@@H](C)C(=O)N1CCC[C@H]1C(=O)N[C@@H](CCCNC(=N)N)C(=O)N[C@@H](CO)C(=O)N[C@@H](CCCCN)C(=O)N[C@H](C(=O)NCC(=O)N1CCC[C@H]1C(=O)N[C@@H](CCC(N)=O)C(=O)NCC(=O)N1C[C@H](O)C[C@H]1C(N)=O)C(C)C)C(C)C)[C@@H](C)O [compound 152] (H-GCRFGTCTVQRLAHQIYQFTDKDKDNVAPRSKVGPQG[Hyp]-NH2; disulfide 2-7; N-terminus assumed) | 10.39 | 1.900%
4 | CC[C@H](C)[C@H](NC(=O)[C@H](CCC(N)=O)NC(=O)[C@H](Cc1c[nH]cn1)NC(=O)[C@H](C)NC(=O)[C@H](CC(C)C)NC(=O)[C@H](CCCNC(=N)N)NC(=O)[C@H](CCC(N)=O)NC(=O)[C@@H](NC(=O)[C@@H](NC(=O)[C@@H]1CSSC[C@H](NC(=O)CN)C(=O)N[C@@H](CCCNC(=N)N)C(=O)N[C@@H]([C@@H](C)O)C(=O)NCC(=O)N[C@@H]([C@@H](C)O)C(=O)N1)[C@@H](C)O)C(C)C)C(=O)N[C@@H](Cc1ccc(O)cc1)C(=O)N[C@@H](CCC(N)=O)C(=O)N[C@@H](Cc1ccccc1)C(=O)N[C@H](C(=O)N[C@@H](CC(=O)O)C(=O)N[C@@H](CCCCN)C(=O)N[C@@H](CC(=O)O)C(=O)N[C@@H](CCCCN)C(=O)N[C@@H](CC(=O)O)C(=O)N[C@@H](CC(N)=O)C(=O)N[C@H](C(=O)N[C@@H](C)C(=O)N1CCC[C@H]1C(=O)N[C@@H](CCCNC(=N)N)C(=O)N[C@@H](CO)C(=O)N[C@@H](CC(N)=O)C(=O)N[C@H](C(=O)NCC(=O)N1CCC[C@H]1C(=O)N[C@@H](CCC(N)=O)C(=O)NCC(=O)N1C[C@H](O)C[C@H]1C(N)=O)C(C)C)C(C)C)[C@@H](C)O [compound 121] (H-GCRTGTCTVQRLAHQIYQFTDKDKDNVAPRSNVGPQG[Hyp]-NH2; disulfide 2-7; N-terminus assumed) | 10.59 | 1.800%
5 | CC[C@H](C)[C@H](NC(=O)[C@H](CCC(N)=O)NC(=O)[C@H](Cc1c[nH]cn1)NC(=O)[C@H](C)NC(=O)[C@H](CC(C)C)NC(=O)[C@H](CCCNC(=N)N)NC(=O)[C@H](CCC(N)=O)NC(=O)[C@@H](NC(=O)[C@@H](NC(=O)[C@@H]1CSSC[C@H](NC(=O)CN)C(=O)N[C@@H](CCCNC(=N)N)C(=O)N[C@@H]([C@@H](C)O)C(=O)NCC(=O)N[C@@H]([C@@H](C)O)C(=O)N1)[C@@H](C)O)C(C)C)C(=O)N[C@@H](Cc1ccc(O)cc1)C(=O)N[C@@H](CCC(N)=O)C(=O)N[C@@H](Cc1ccccc1)C(=O)N[C@H](C(=O)N[C@@H](CC(=O)O)C(=O)N[C@@H](CCCCN)C(=O)N[C@@H](CC(=O)O)C(=O)N[C@@H](CCCCN)C(=O)N[C@@H](CC(=O)O)C(=O)N[C@@H](CC(N)=O)C(=O)N[C@H](C(=O)N[C@@H](C)C(=O)N1CCC[C@H]1C(=O)N[C@@H](CCCNC(=N)N)C(=O)N[C@H](C(=O)N[C@@H](CCCCN)C(=O)N[C@H](C(=O)NCC(=O)N1CCC[C@H]1C(=O)N[C@@H](CCC(N)=O)C(=O)NCC(=O)N[C@@H](Cc1ccc(O)cc1)C(N)=O)C(C)C)[C@@H](C)O)C(C)C)[C@@H](C)O [compound 156] (H-GCRTGTCTVQRLAHQIYQFTDKDKDNVAPRTKVGPQGY-NH2; disulfide 2-7; N-terminus assumed) | 10.33 | 15.300%
6 | CC[C@H](C)[C@H](NC(=O)[C@H](CCC(N)=O)NC(=O)[C@H](Cc1c[nH]cn1)NC(=O)[C@H](C)NC(=O)[C@H](CC(C)C)NC(=O)[C@H](CCCNC(=N)N)NC(=O)[C@H](CCC(N)=O)NC(=O)[C@@H](NC(=O)[C@@H](NC(=O)[C@@H]1CSSC[C@H](NC(=O)CN)C(=O)N[C@@H](CCCNC(=N)N)C(=O)N[C@@H](Cc2ccccc2)C(=O)NCC(=O)N[C@@H]([C@@H](C)O)C(=O)N1)[C@@H](C)O)C(C)C)C(=O)N[C@@H](Cc1ccc(O)cc1)C(=O)N[C@@H](CCC(N)=O)C(=O)N[C@@H](Cc1ccccc1)C(=O)N[C@H](C(=O)N[C@@H](CC(=O)O)C(=O)N[C@@H](CCCCN)C(=O)N[C@@H](CC(=O)O)C(=O)N[C@@H](CCCCN)C(=O)N[C@@H](CC(=O)O)C(=O)N[C@@H](CC(N)=O)C(=O)N[C@H](C(=O)N[C@@H](C)C(=O)N1CCC[C@H]1C(=O)N[C@@H](CCCNC(=N)N)C(=O)N[C@H](C(=O)N[C@@H](CC(N)=O)C(=O)N[C@H](C(=O)N[C@@H](CO)C(=O)N1CCC[C@H]1C(=O)N[C@@H](CCC(N)=O)C(=O)NCC(=O)N[C@@H](Cc1ccc(O)cc1)C(N)=O)C(C)C)[C@@H](C)O)C(C)C)[C@@H](C)O [compound 116] (H-GCRFGTCTVQRLAHQIYQFTDKDKDNVAPRTNVSPQGY-NH2; disulfide 2-7; N-terminus assumed) | 10.62 | 11.700%
